Reference: US20150353495A1 (PORTOLA PHARMACEUTICALS, INC., priority 2010, published 2015)

Target: T1, JAK2 (Homo sapiens, UniProt O60674)
T1 construct: 5 μl of catalytic domain recombinant Kinase enzyme+Tyr peptide substrate (Invitrogen, CA); purchased Invitrogen
Assay: Z'-LYTE kinase assay JAK2
Type: biochemical
Method in brief: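 Z′-LYTE FRET, Tyr6 peptide, recombinant catalytic domain + ATP, 1 h RT, 1% DMSO final, duplicates; protease development 1 h RT; fluorescence read.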

T1 sequence (O60674 849-1124 limits assumed): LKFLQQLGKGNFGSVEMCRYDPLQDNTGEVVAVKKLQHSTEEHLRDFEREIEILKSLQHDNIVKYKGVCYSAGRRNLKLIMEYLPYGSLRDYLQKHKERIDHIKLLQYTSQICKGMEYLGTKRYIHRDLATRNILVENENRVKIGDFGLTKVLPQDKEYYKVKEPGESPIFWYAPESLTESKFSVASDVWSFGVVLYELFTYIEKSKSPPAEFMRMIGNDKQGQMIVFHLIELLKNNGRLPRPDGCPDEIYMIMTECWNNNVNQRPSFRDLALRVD

| IC50 [nM] | Structure (SMILES) |
| --- | --- |
| 100 to 1000 | CC(=O)N1CCN(c2ccc(Nc3cc(NC4CC4)c(C(N)=O)cn3)cc2)CC1 [Example 2] |
| 10 to 100 | CC(=O)N1CCN(c2ccc(Nc3cc(NCc4cccc(F)c4)c(C(N)=O)cn3)cc2)CC1 [Example 229] |
